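These data come from cells grown in 96-well plates and exposed to compound for 48 hours at five concentrations. GI50: concentration for 50% inhibition of growth.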 Activity calls are given as the source filed them. Rule as the data show it: active = GI50 up to about 1.1 µM and inactive = higher.
Legend:
Experiment in all cases: NCI tumour cell line growth inhibition, 48 h
[1] = system: 786-0
[2] = system: A549
[3] = system: ACHN
[4] = system: CCRF-CEM
[5] = system: COLO 205
[6] = system: DU-145
[7] = system: EKVX
[8] = system: HCC 2998
[9] = system: HCT-116
[10] = system: HCT-15
[11] = system: HL-60
[12] = system: HOP-62
[13] = system: HOP-92
[14] = system: HT-29
[15] = system: Hs-578T
[16] = system: IGROV-1
[17] = system: K562
[18] = system: KM12
[19] = system: LOX IMVI
[20] = system: M14
[21] = system: MCF7
[22] = system: MDA-MB-231
[23] = system: MDA-MB-435
[24] = system: MDA-N
[25] = system: MOLT-4
[26] = system: Malme-3M
[27] = system: NCI-H226
[28] = system: NCI-H23
[29] = system: NCI-H460
[30] = system: NCI/ADR-RES
[31] = system: OVCAR-3
[32] = system: OVCAR-4
[33] = system: OVCAR-5
[34] = system: OVCAR-8
[35] = system: PC-3
[36] = system: RPMI-8226
[37] = system: SF-268
[38] = system: SF-295
[39] = system: SF-539
[40] = system: SK-MEL-28
[41] = system: SK-MEL-2
[42] = system: SK-MEL-5
[43] = system: SK-OV-3
[44] = system: SN12C
[45] = system: SNB-75
[46] = system: SR
[47] = system: SW-620
[48] = system: T47D
[49] = system: TK-10
[50] = system: U-251
[51] = system: UACC-257
[52] = system: UACC-62
[53] = system: UO-31

CCN(CC)CCOCCn1c2c(c3ccccc31)CCCC2
GI50 [1]: 16.2 µM (inactive) | GI50 [2]: 23.9 µM (inactive) | GI50 [3]: 19.1 µM (inactive) | GI50 [4]: 18.8 µM (inactive) | GI50 [5]: 17.7 µM (inactive) | GI50 [6]: 30.9 µM (inactive) | GI50 [7]: 40.2 µM (inactive) | GI50 [8]: 16.8 µM (inactive) | GI50 [9]: 15.8 µM (inactive) | GI50 [10]: 16.3 µM | GI50 [11]: 9.73 µM (inactive) | GI50 [12]: 17.2 µM (inactive) | GI50 [13]: 20.9 µM (inactive) | GI50 [14]: 23.7 µM (inactive) | GI50 [15]: 20 µM (inactive) | GI50 [16]: 18.9 µM (inactive) | GI50 [17]: 13.6 µM (inactive) | GI50 [18]: 34.5 µM (inactive) | GI50 [19]: 19.5 µM (inactive) | GI50 [20]: 16.9 µM (inactive) | GI50 [21]: 18.2 µM (inactive) | GI50 [22]: 18 µM (inactive) | GI50 [23]: 17.8 µM (inactive) | GI50 [24]: 17.2 µM (inactive) | GI50 [25]: 15.8 µM (inactive) | GI50 [26]: 15.6 µM (inactive) | GI50 [27]: 26.4 µM (inactive) | GI50 [28]: 35.8 µM (inactive) | GI50 [29]: 22.8 µM (inactive) | GI50 [30]: 12.7 µM (inactive) | GI50 [31]: 35.5 µM (inactive) | GI50 [32]: 26 µM (inactive) | GI50 [33]: 23.3 µM (inactive) | GI50 [34]: 33.7 µM (inactive) | GI50 [35]: 17.8 µM (inactive) | GI50 [36]: 20.4 µM (inactive) | GI50 [37]: 36.1 µM (inactive) | GI50 [38]: 38.5 µM (inactive) | GI50 [39]: 16.6 µM (inactive) | GI50 [40]: 17 µM (inactive) | GI50 [41]: 15.7 µM (inactive) | GI50 [42]: 13.5 µM (inactive) | GI50 [43]: 27.4 µM (inactive) | GI50 [44]: 18.3 µM (inactive) | GI50 [45]: 34.8 µM (inactive) | GI50 [46]: 16.3 µM (inactive) | GI50 [47]: 17.1 µM (inactive) | GI50 [48]: 20.6 µM (inactive) | GI50 [49]: 19.1 µM (inactive) | GI50 [50]: 17.2 µM (inactive) | GI50 [51]: 21.9 µM (inactive) | GI50 [52]: 17 µM (inactive) | GI50 [53]: 14.5 µM (inactive)

Source: ChEMBL document CHEMBL1201862, “PubChem BioAssay data set” (2004)
